Data as given in ChEMBL document CHEMBL1137463, “Discovery and structure-activity relationships of new steroidal compounds bearing a carboxy-terminal side chain as androgen receptor pure antagonists” (Bioorg Med Chem Lett, 2007).

Assays:
Androgen receptor [1] = target: T1, Androgen receptor (Homo sapiens, UniProt P10275)
T1 sequence (P10275 whole entry): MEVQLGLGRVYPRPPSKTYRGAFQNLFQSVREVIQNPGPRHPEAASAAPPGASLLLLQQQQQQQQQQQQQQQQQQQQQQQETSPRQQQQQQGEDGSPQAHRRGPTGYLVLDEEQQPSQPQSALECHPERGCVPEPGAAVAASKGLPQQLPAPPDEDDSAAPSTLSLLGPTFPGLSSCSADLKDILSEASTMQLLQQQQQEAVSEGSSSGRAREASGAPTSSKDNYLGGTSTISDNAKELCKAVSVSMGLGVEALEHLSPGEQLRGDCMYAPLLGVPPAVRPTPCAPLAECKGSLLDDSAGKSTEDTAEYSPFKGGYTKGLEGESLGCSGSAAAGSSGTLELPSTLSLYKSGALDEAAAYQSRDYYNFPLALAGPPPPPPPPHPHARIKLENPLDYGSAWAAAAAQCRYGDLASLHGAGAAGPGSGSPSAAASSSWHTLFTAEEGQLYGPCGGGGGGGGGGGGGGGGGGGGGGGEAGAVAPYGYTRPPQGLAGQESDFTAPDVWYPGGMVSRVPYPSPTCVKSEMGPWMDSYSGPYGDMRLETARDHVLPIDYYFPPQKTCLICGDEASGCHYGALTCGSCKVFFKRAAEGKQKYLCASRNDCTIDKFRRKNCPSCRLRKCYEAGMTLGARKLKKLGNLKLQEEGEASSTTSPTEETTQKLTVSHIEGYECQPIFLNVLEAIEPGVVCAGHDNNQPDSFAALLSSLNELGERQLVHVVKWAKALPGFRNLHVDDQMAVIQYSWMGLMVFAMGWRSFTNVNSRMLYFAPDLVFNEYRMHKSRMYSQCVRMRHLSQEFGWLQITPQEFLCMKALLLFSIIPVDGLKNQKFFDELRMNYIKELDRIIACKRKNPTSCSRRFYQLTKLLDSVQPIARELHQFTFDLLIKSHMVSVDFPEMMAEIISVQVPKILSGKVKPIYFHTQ
Description: Antagonist activity at human androgen receptor expressed in HeLa cells assessed as inhibition of dihydrotestosterone induced transcriptional activity by reporter gene assay

[2] = target: T2, Androgen receptor (Homo sapiens) (UniProt P10275); details: HeLa
T2 sequence (whole entry): T1 sequence (P10275 whole entry)
Description: Agonist activity at human androgen receptor expressed in HeLa cells assessed as five times increase in transcriptional activity by reporter gene assay

Androgen receptor [3] = target: T1, Androgen receptor; test: biochemical
Description: Displacement of [3H]mibolerone from human androgen receptor expressed in CHOK1 cells

Mus musculus [4] = test: Inhibition of testosterone propionate-stimulated seminal vesicle weight gain in castrated mouse at 1 mg/body, sc; format: functional
Mus musculus [5] = test: Inhibition of testosterone propionate-stimulated seminal vesicle weight gain in castrated mouse at 3 mg/body, sc; format: functional
Mus musculus [6] = test: Inhibition of testosterone propionate-stimulated seminal vesicle weight gain in castrated mouse at 10 mg/body, sc; format: functional

Row | Compound | IC50 (Androgen receptor [1]) [nM] | FI5 [2] [nM] | IC50 (Androgen receptor [3]) [nM] | Inhibition (Mus musculus [4]) [%] | Inhibition (Mus musculus [5]) [%] | Inhibition (Mus musculus [6]) [%]
1 | C[C@]12CCC(=O)C=C1C[C@@H](CCCCc1cccc(OCCCC(=O)O)c1)[C@@H]1[C@@H]2CC[C@@]2(C)[C@H]1CC[C@]2(C)O | 920 | > 10000 | 670 |  |  | 
2 | C[C@]12CCC(=O)C=C1C[C@@H](CCCCc1cccc(OCCCCC(=O)O)c1)[C@@H]1[C@@H]2CC[C@@]2(C)[C@H]1CC[C@]2(C)O |  | > 10000 | 350 |  |  | 
3 | C[C@]12CCC(=O)C=C1C[C@@H](CCCCCCCCCC(=O)O)[C@@H]1[C@@H]2CC[C@@]2(C)[C@H]1CC[C@]2(C)O | 2000 | > 10000 | 600 |  |  | 
4 | CC(C)(O)C(=O)Nc1ccc([N+](=O)[O-])c(C(F)(F)F)c1 [HYDROXYFLUTAMIDE] |  | 1000 |  | 6.7 | 0.8 | 6.4
5 | C[C@]12CCC(=O)C[C@@H]1C[C@@H](CCCCCCCCCC(=O)O)[C@@H]1[C@@H]2CC[C@]2(C)[C@@H](O)CC[C@@H]12 | 920 | 120 | 350 |  |  | 
6 | C[C@]12CCC(=O)C=C1C[C@@H](CCCc1cccc(OCCCC(=O)O)c1)[C@@H]1[C@@H]2CC[C@@]2(C)[C@H]1CC[C@]2(C)O | 5800 | 1500 |  |  |  | 
7 | C[C@]12CCC(=O)C=C1C[C@@H](CCCCc1cccc(OCCCCCC(=O)O)c1)[C@@H]1[C@@H]2CC[C@@]2(C)[C@H]1CC[C@]2(C)O | 530 | > 10000 | 120 |  |  | 
8 | C[C@]12CCC(=O)C=C1C[C@@H](CCCCc1ccc(OCCCCC(=O)O)cc1)[C@@H]1[C@@H]2CC[C@@]2(C)[C@H]1CC[C@]2(C)O | 250 | 2000 | 96 |  |  | 
9 | C[C@]12CCC(=O)C[C@@H]1C[C@@H](CCCCCCCC(=O)O)[C@@H]1[C@@H]2CC[C@]2(C)[C@@H](O)CC[C@@H]12 | 730 | 110 | 660 |  |  | 
10 | C[C@]12CCC(=O)C[C@@H]1C[C@@H](CCCCCCCCC(CCCC(F)(F)C(F)(F)F)C(=O)O)[C@@H]1[C@@H]2CC[C@]2(C)[C@@H](O)CC[C@@H]12 (stereo not given in full) | > 10000 | 13 | 410 |  |  | 
11 | C[C@]12CCC(=O)C=C1C[C@@H](CCCc1ccc(OCCCC(=O)O)cc1)[C@@H]1[C@@H]2CC[C@@]2(C)[C@H]1CC[C@]2(C)O | 660 | > 10000 | 430 |  |  | 
12 | C[C@]12CCC(=O)C=C1C[C@@H](CCCc1ccc(OCCC(=O)O)cc1)[C@@H]1[C@@H]2CC[C@@]2(C)[C@H]1CC[C@]2(C)O | 170 | 2500 | 300 |  |  | 
13 | CN(C)C(=O)CCCCCCC[C@@H]1C[C@H]2CC(=O)CC[C@]2(C)[C@H]2CC[C@]3(C)[C@@H](O)CC[C@H]3[C@H]12 | 190 | > 10000 | 260 |  |  | 
14 | C[C@]12CCC(=O)C=C1C[C@@H](CCCCc1ccc(OCCCCCC(=O)O)cc1)[C@@H]1[C@@H]2CC[C@@]2(C)[C@H]1CC[C@]2(C)O | 420 | 100 |  |  |  | 
15 | C[C@]12CCC(=O)C=C1C[C@@H](CCCc1ccc(OCCCCC(=O)O)cc1)[C@@H]1[C@@H]2CC[C@@]2(C)[C@H]1CC[C@]2(C)O | 300 | 3200 | 660 |  |  | 
16 | C[C@]12CCC(=O)C=C1C[C@@H](CCCCc1ccc(OCCCC(=O)O)cc1)[C@@H]1[C@@H]2CC[C@@]2(C)[C@H]1CC[C@]2(C)O | 850 | 170 |  |  |  | 
